Legend:
JMJD2C = JMJD2C (Homo sapiens (Human), UniProt Q9H3R0); test: In vitro enzyme inhibition assay for JMJD2C activity (TR-FRET); assay type: biochemical
In short: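 Baculovirus JMJD2C (AA 2-372), 0.3 nM, with 300 nM biotin-H3K9me3 peptide and 2 μM α-ketoglutarate in HEPES pH 7.3 containing Fe(II) and ascorbate, 30 min at room temperature, 11-point dilutions. H3K9me2 product by TR-FRET (Eu-antibody/streptavidin-APC, 665/615 ratio); IC50 fitted.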

[1] = system: KYSE-150 esophageal carcinoma cell line; test: In vitro cell-based assay: cellular proliferation via BrdU incorporation (ELISA); set-up: species or system human; settings: Homo sapiens, KYSE-150, 168 hours compound incubation
In short: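 KYSE-150 cells (JMJD2C-amplified; SMAD4 and TP53 mutant), 2,000/well, were treated after overnight attachment with an 11-point series (100 μM to 2 nM) for 168 h. Proliferation was read by BrdU ELISA (2 h labelling, anti-BrdU-peroxidase, TMB, 450 nm) and IC50 fitted.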

Chain of JMJD2C (Q9H3R0 2-372): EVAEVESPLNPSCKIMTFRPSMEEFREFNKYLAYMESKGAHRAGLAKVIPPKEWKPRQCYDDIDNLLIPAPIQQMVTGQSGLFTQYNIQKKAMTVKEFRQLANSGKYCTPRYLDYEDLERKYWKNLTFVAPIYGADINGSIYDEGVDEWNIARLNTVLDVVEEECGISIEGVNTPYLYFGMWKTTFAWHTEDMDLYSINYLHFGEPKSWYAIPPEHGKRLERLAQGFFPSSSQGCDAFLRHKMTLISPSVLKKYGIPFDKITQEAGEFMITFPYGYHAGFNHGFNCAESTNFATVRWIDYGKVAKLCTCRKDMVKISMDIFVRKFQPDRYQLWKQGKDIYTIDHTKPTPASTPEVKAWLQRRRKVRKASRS

Row | Compound | IC50 (JMJD2C) [nM] | IC50 [1] [nM]
1 | Cc1ccccc1N(C)c1ccc2c(c1)OCC[C@H]2CNc1cnccc1C(=O)O [Example 111, 3-({[(4R)-7-[methyl(2-methylphenyl)amino]-3,4-dihydro-2H-1-benzopyran-4-yl]methyl}amino)pyridine-4-carboxylic acid] | 100 to 1000 | 100 to 1000
2 | COc1cc(N(C)c2ccc3c(c2)CCC[C@H]3CNc2cnccc2C(=O)O)ccc1F [Example 114, 3-({[(1R)-6-[(4-fluoro-3-methoxyphenyl)(methyl)amino]-1,2,3,4-tetrahydronaphthalen-1-yl]methyl}amino)pyridine-4-carboxylic acid] | 100 to 1000 | 100 to 1000
3 | COc1ccccc1-c1ccc2c(c1)OCC[C@H]2CNc1cnccc1C(=O)O [Example 116, 3-({[(4R)-7-(2-methoxyphenyl)-3,4-dihydro-2H-1-benzopyran-4-yl]methyl}amino)pyridine-4-carboxylic acid] | 100 to 1000 | 100 to 1000
4 | CN(c1cccc(C#N)c1)c1ccc2c(c1)OCC[C@H]2CNc1cnccc1C(=O)O [Example 117, 3-({[(4R)-7-[(3-cyanophenyl)(methyl)amino]-3,4-dihydro-2H-1-benzopyran-4-yl]methyl}amino)pyridine-4-carboxylic acid] | 100 to 1000 | 100 to 1000
5 | CN(c1ccc(C#N)cc1)c1ccc2c(c1)OCC[C@H]2CNc1cnccc1C(=O)O [Example 119, 3-({[(4R)-7-[(4-cyanophenyl)(methyl)amino]-3,4-dihydro-2H-1-benzopyran-4-yl]methyl}amino)pyridine-4-carboxylic acid] | 100 to 1000 | 100 to 1000
6 | CN(CC1CC1)c1ccc2c(c1)CCC[C@H]2CNc1cnccc1C(=O)O [Example 120, 3-({[(1R)-6-[(cyclopropylmethyl)(methyl)amino]-1,2,3,4-tetrahydronaphthalen-1-yl]methyl}amino)pyridine-4-carboxylic acid] | 100 to 1000 | 100 to 1000
7 | N#Cc1ccccc1-c1ccc2c(c1)OCC[C@H]2CNc1cnccc1C(=O)O [Example 124, 3-({[(4R)-7-(2-cyanophenyl)-3,4-dihydro-2H-1-benzopyran-4-yl]methyl}amino)pyridine-4-carboxylic acid] | 100 to 1000 | 1000 to 10000
8 | CN(c1ccc2c(c1)COC2)c1ccc2c(c1)OCC[C@H]2CNc1cnccc1C(=O)O [Example 127, 3-({[(4R)-7-[(1,3-dihydro-2-benzofuran-5-yl)(methyl)amino]-3,4-dihydro-2H-1-benzopyran-4-yl]methyl}amino)pyridine-4-carboxylic acid] | 100 to 1000 | 100 to 1000
9 | CN(c1ccc2c(c1)CCC2)c1ccc2c(c1)OCC[C@H]2CNc1cnccc1C(=O)O [Example 131, 3-({[(4R)-7-[(2,3-dihydro-1H-inden-5-yl)(methyl)amino]-3,4-dihydro-2H-1-benzopyran-4-yl]methyl}amino)pyridine-4-carboxylic acid] | 100 to 1000 | ≤ 100
10 | CN(c1ccc2c(c1)CCC[C@H]2CNc1cnccc1C(=O)O)c1ccc2ccoc2c1 [Example 135, 3-({[(1R)-6-[(1-benzofuran-6-yl)(methyl)amino]-1,2,3,4-tetrahydronaphthalen-1-yl]methyl}amino)pyridine-4-carboxylic acid] | 100 to 1000 | ≤ 100
11 | CN(c1ccc2c(c1)OCC[C@H]2CNc1cnccc1C(=O)O)c1ccc2occc2c1 [Example 136, 3-({[(4R)-7-[(1-benzofuran-5-yl)(methyl)amino]-3,4-dihydro-2H-1-benzopyran-4-yl]methyl}amino)pyridine-4-carboxylic acid] | 100 to 1000 | ≤ 100
12 | CN(c1ccc2c(c1)OCC[C@H]2CNc1cnccc1C(=O)O)c1ccc2ccoc2c1 [Example 141, 3-({[(4R)-7-[(1-benzofuran-6-yl)(methyl)amino]-3,4-dihydro-2H-1-benzopyran-4-yl]methyl}amino)pyridine-4-carboxylic acid] | 100 to 1000 | 100 to 1000
13 | CN(c1ccc2c(c1)CCC[C@H]2CNc1cnccc1C(=O)O)c1cccs1 [Example 144, 3-({[(1R)-6-[methyl(thiophen-2-yl)amino]-1,2,3,4-tetrahydronaphthalen-1-yl]methyl}amino)pyridine-4-carboxylic acid] | 100 to 1000 | ≤ 100
14 | O=C(O)c1ccncc1NC[C@@H]1CCCc2cc(N(CCO)c3ccccc3)ccc21 [Example 147, 3-({[(1R)-6-[(2-hydroxyethyl)(phenyl)amino]-1,2,3,4-tetrahydronaphthalen-1-yl]methyl}amino)pyridine-4-carboxylic acid] | 100 to 1000 | 100 to 1000
15 | COc1cccc(N(C)c2ccc3c(c2)CCC[C@H]3CNc2cnccc2C(=O)O)c1 [Example 150, 3-({[(1R)-6-[(3-methoxyphenyl)(methyl)amino]-1,2,3,4-tetrahydronaphthalen-1-yl]methyl}amino)pyridine-4-carboxylic acid] | 100 to 1000 | ≤ 100
16 | Cc1ccc(N(C)c2ccc3c(c2)OCC[C@H]3CNc2cnccc2C(=O)O)cc1F [Example 151, 3-({[(4R)-7-[(3-fluoro-4-methylphenyl)(methyl)amino]-3,4-dihydro-2H-1-benzopyran-4-yl]methyl}amino)pyridine-4-carboxylic acid] | 100 to 1000 | ≤ 100
17 | CN(c1ccc2c(c1)OCC[C@H]2CNc1cnccc1C(=O)O)c1ccc(Cl)cn1 [Example 152, 3-({[(4R)-7-[(5-chloropyridin-2-yl)(methyl)amino]-3,4-dihydro-2H-1-benzopyran-4-yl]methyl}amino)pyridine-4-carboxylic acid] | 100 to 1000 | 100 to 1000

Second part, the compound after the results:

Row | IC50 (JMJD2C) [nM] | IC50 [1] [nM] | Compound
18 | 100 to 1000 | ≤ 100 | Cc1cccc(N(C)c2ccc3c(c2)OCC[C@H]3CNc2cnccc2C(=O)O)c1 [Example 105, 3-({[(4R)-7-[methyl(3-methylphenyl)amino]-3,4-dihydro-2H-1-benzopyran-4-yl]methyl}amino)pyridine-4-carboxylic acid]
19 | 100 to 1000 | 100 to 1000 | O=C(O)c1ccncc1NC[C@@H]1CCCc2cc(N3CCCC3)ccc21 [Example 106, 3-({[(1R)-6-(pyrrolidin-1-yl)-1,2,3,4-tetrahydronaphthalen-1-yl]methyl}amino)pyridine-4-carboxylic acid]
20 | 100 to 1000 | 100 to 1000 | CN(c1cc(F)cc(F)c1)c1ccc2c(c1)OCC[C@H]2CNc1cnccc1C(=O)O [Example 109, 3-({[(4R)-7-[(3,5-difluorophenyl)(methyl)amino]-3,4-dihydro-2H-1-benzopyran-4-yl]methyl}amino)pyridine-4-carboxylic acid]
21 | 1000 to 10000 | ≤ 100 | CN(c1cccc(Cl)c1)c1ccc2c(c1)OCC[C@H]2CNc1cnccc1C(=O)O [Example 110, 3-({[(4R)-7-[(3-chlorophenyl)(methyl)amino]-3,4-dihydro-2H-1-benzopyran-4-yl]methyl}amino)pyridine-4-carboxylic acid]
22 | 100 to 1000 | 1000 to 10000 | COc1cc(N(C)c2ccc3c(c2)OCC[C@H]3CNc2cnccc2C(=O)O)ccc1F [Example 112, 3-({[(4R)-7-[(4-fluoro-3-methoxyphenyl)(methyl)amino]-3,4-dihydro-2H-1-benzopyran-4-yl]methyl}amino)pyridine-4-carboxylic acid]
23 | 100 to 1000 | 100 to 1000 | CN(c1cccc(C#N)c1)c1ccc2c(c1)CCC[C@H]2CNc1cnccc1C(=O)O [Example 115, 3-({[(1R)-6-[(3-cyanophenyl)(methyl)amino]-1,2,3,4-tetrahydronaphthalen-1-yl]methyl}amino)pyridine-4-carboxylic acid]
24 | 100 to 1000 | ≤ 100 | COc1cccc(N(C)c2ccc3c(c2)CCC[C@H]3CNc2cnccc2C(=O)O)n1 [Example 121, 3-({[(1R)-6-[(6-methoxypyridin-2-yl)(methyl)amino]-1,2,3,4-tetrahydronaphthalen-1-yl]methyl}amino)pyridine-4-carboxylic acid]
25 | 100 to 1000 | 100 to 1000 | CN(c1ccc2c(c1)CCC[C@H]2CNc1cnccc1C(=O)O)c1ccn(C)n1 [Example 125, 3-({[(1R)-6-[methyl(1-methyl-1H-pyrazol-3-yl)amino]-1,2,3,4-tetrahydronaphthalen-1-yl]methyl}amino)pyridine-4-carboxylic acid]
26 | 100 to 1000 | ≤ 100 | CN(c1ccc2c(c1)COC2)c1ccc2c(c1)CCC[C@H]2CNc1cnccc1C(=O)O [Example 132, 3-({[(1R)-6-[(1,3-dihydro-2-benzofuran-5-yl)(methyl)amino]-1,2,3,4-tetrahydronaphthalen-1-yl]methyl}amino)pyridine-4-carboxylic acid]
27 | 100 to 1000 | > 10000 | O=C(O)c1ccncc1NCC1OCCc2ccccc21 (stereo not shown) [Example 142, 3-[(3,4-dihydro-1H-2-benzopyran-1-ylmethyl)amino]pyridine-4-carboxylic acid]
28 | 100 to 1000 | ≤ 100 | CN(c1ccccc1)c1ccc2c(c1)CCOC2CNc1cnccc1C(=O)O (stereo not shown) [Example 146, 3-[({6-[methyl(phenyl)amino]-3,4-dihydro-1H-2-benzopyran-1-yl}methyl)amino]pyridine-4-carboxylic acid]
29 | 100 to 1000 | 100 to 1000 | Cc1cccc(N(C)c2ccc3c(c2)OCC[C@H]3CNc2cnccc2C(=O)O)n1 [Example 148, 3-({[(4R)-7-[methyl(6-methylpyridin-2-yl)amino]-3,4-dihydro-2H-1-benzopyran-4-yl]methyl}amino)pyridine-4-carboxylic acid]
